Assay results as given in patent US9006454B2, “Dihydroorotate dehydrogenase inhibitors” (Merck Serono S.A., priority 2009, dated 2015).

What was measured:
Jurkat cells = assay: Measurement of cell proliferation (Jurkat cell), XTT assay; type: cell-based; conditions: Homo sapiens, Jurkat; for inhibition at 1 µM: compound at 1 uM, read-out: % inh Jurkat_cells @ 1 uM (%); for EC50: 72 h, XTT cell viability
Outline: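 Jurkat T cells, 100,000 per well in RPMI with 10% FBS, exposed 72 h at 37 °C to serial compound dilutions (typically from 10 μM, half-log steps, triplicate) at 0.25–0.5% DMSO. Viability by XTT/PMS, A465 after 2 h, media background subtracted, untreated cells as 100%; EC50 from curve fit.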

DHODH = DHODH (Homo sapiens (Human), UniProt Q02127); assay: DHODH activity assay (coupled enzyme assay, DCIP reduction, absorbance at 610 nm); type: biochemical; conditions: for inhibition at 10 µM: compound at 10 uM, read-out: inh @ 10 uM hDHODH (%)
Chain of DHODH (Q02127 whole entry): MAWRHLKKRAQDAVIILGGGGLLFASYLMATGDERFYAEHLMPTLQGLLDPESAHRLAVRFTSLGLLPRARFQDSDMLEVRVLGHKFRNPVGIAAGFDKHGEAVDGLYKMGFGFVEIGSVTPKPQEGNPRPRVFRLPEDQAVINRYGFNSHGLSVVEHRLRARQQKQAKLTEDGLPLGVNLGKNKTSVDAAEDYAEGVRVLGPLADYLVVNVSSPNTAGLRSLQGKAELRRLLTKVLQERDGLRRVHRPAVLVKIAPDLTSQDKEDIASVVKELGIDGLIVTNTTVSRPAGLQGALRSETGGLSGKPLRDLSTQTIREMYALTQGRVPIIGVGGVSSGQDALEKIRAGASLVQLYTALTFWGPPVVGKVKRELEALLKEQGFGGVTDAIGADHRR

| IC50 (DHODH) | inhibition at 10 µM (DHODH) | EC50 (Jurkat cells) | SMILES | inhibition at 1 µM (Jurkat cells) |
| --- | --- | --- | --- | --- |
| 949 nM | 92.2% |  | O=C(O)c1cc(Cl)cc2[nH]c(-c3ccc(-c4ccccc4F)cc3)nc12 [I45] | 49.5% |
|  | 48.5% |  | Cc1cc(C(=O)O)c2[nH]c(-c3ccc(-c4cccc(OC5CCNCC5)c4)cc3)nc2c1 [I155] | 14.2% |
| 6.8 nM | 103% | 18 nM | Cc1cc(C(=O)O)c2nc(-c3c(F)c(F)c(-c4ccccc4)c(F)c3F)[nH]c2c1 [I41] | 103% |
|  | 19.9% |  | O=C(O)c1cccc2nc(-c3cccc4ccccc34)[nH]c12 [I39] | 12.3% |
|  | 57.7% |  | O=C(O)c1cccc2[nH]c(-c3ccc(-c4ccc(OCc5ccccn5)cc4)cc3)nc12 [I182] | 26.9% |
| 1420 nM | 91.3% |  | Cc1cc(C(=O)O)c2[nH]c(-c3ccc(-c4ccc(F)cc4F)cc3)nc2c1 [I33] | 50.5% |
|  | 59.3% |  | Cc1cc(C(=O)O)c2nc(-c3ccc(-c4ccc(CN5CCCC5)cc4)cc3)[nH]c2c1 [I164] | 12.1% |
| 1680 nM | 88.4% |  | Cc1cc(C(=O)O)c2nc(-c3ccc(-c4cccs4)cc3)[nH]c2c1 [I149] | 47.5% |
|  | 45.8% |  | N#Cc1ccc(Oc2ccc(-c3ccc(-c4nc5c(C(=O)O)cccc5[nH]4)cc3)cc2)cc1 [I179] | 10.1% |
|  | 46% |  | Cc1cc(-c2nnc(O)o2)c2nc(-c3ccc(-c4ccccc4)cc3)[nH]c2c1 [I165] | 29.7% |
|  | 53.3% |  | O=C(O)c1cccc2[nH]c(-c3ccc(-c4ccc(OCc5cccnc5)cc4)cc3)nc12 [I184] | 25.4% |
| 20 nM | 90.8% |  | O=C(O)c1cccc2[nH]c(-c3c(F)c(F)c(-c4cc(F)cc(F)c4)c(F)c3F)nc12 [I129] | 70.5% |
|  | 58% |  | O=C(O)c1cccc2[nH]c(-c3ccc(-c4ccncc4)cc3)nc12 [I57] | 12.6% |
| 1010 nM | 92.7% |  | Cc1cc(C(=O)O)c2[nH]c(-c3ccc(-c4ccc(F)cc4F)cc3F)nc2c1 [I31] | 55.5% |
|  | 74.7% |  | O=C(O)c1cccc2[nH]c(-c3ccc(-c4cccs4)cc3)nc12 [I192] | 26.1% |
|  | 69.1% |  | Cc1cc(C(=O)OCCO)c2[nH]c(-c3c(F)c(F)c(-c4ccccc4)c(F)c3F)nc2c1 [I156] | 31.4% |
| 276 nM | 97.8% |  | O=C(O)c1cc(F)cc2[nH]c(-c3c(F)cc(-c4ccccc4)cc3F)nc12 [I68] | 78.4% |
|  | 57.4% |  | Cc1cc(C(=O)O)c2[nH]c(-c3ccc(-c4ccc(CNC(C)C)cc4)cc3)nc2c1 [I160] | 19.6% |
| 1570 nM | 83.2% |  | O=C(O)c1cccc2[nH]c(-c3ccc(Oc4c(F)cccc4F)cc3)nc12 [I56] | 38.8% |
| 898 nM | 84.4% |  | Cc1cc(C(=O)O)c2nc(-c3ccc(-c4cccc(F)c4F)cc3)[nH]c2c1 [I52] | 56.7% |
| 50 nM | 105% |  | Cc1cc(C(=O)O)c2nc(-c3c(F)c(F)c(-c4ccsc4)c(F)c3F)[nH]c2c1 [I139] | 94.9% |
| 60 nM | 104% |  | Cc1cc(C(=O)O)c2[nH]c(-c3c(F)c(F)c(-c4ccccc4OCc4ccccc4)c(F)c3F)nc2c1 [I100] | 96.2% |
| 862 nM | 78% |  | Cc1cc(C(=O)O)c2nc(-c3ccc(-c4cccc(O)c4)cc3)[nH]c2c1 [I116] | 59% |

Further lines, the compound ahead of its results:

| SMILES | IC50 (DHODH) | inhibition at 10 µM (DHODH) | EC50 (Jurkat cells) | inhibition at 1 µM (Jurkat cells) |
| --- | --- | --- | --- | --- |
| O=C(O)c1cccc2[nH]c(-c3c(F)c(F)c(-c4ccc(OCc5ccccc5)cc4)c(F)c3F)nc12 [I132] | 378 nM | 91.5% |  | 67.8% |
| Cc1cc(C(=O)O)c2nc(-c3ccc(-c4ccc(OCc5ccccn5)cc4)cc3)[nH]c2c1 [I119] | 2230 nM | 88.1% |  | 40.3% |
| Cc1cc(C(=O)O)c2nc(-c3ccc(-c4ccc(CO)cc4)cc3)[nH]c2c1 [I170] |  | 84% |  | 57% |
| O=Cc1ccc(Oc2ccc(-c3ccc(-c4nc5c(C(=O)O)cccc5[nH]4)cc3)cc2)cc1 [I180] |  | 30.5% |  | 9.8% |
| Cc1cc(C(=O)O)c2[nH]c(-c3ccc(-c4ccccc4F)cc3F)nc2c1 [I25] | 172 nM | 94% | 98 nM | 82% |
| N#Cc1ccccc1Oc1ccc(-c2ccc(-c3nc4c(C(=O)O)cccc4[nH]3)cc2)cc1 [I175] |  | 30% |  | 15% |
| Cc1cc(C(=O)O)c2[nH]c(-c3ccc(-c4ccccc4)nc3)nc2c1 [I75, 6-Methyl-2-(6-phenyl-pyridin-3-yl)-3H-benzoimidazole-4-carboxylic acid] | 3820 nM | 82.4% |  | 39.3% |
| O=C(O)c1cccc2[nH]c(-c3c(F)c(F)c(-c4cccc(F)c4F)c(F)c3F)nc12 [I128] | 209 nM | 73.1% |  | 64.9% |
| O=C(O)c1cccc2[nH]c(-c3c(F)c(F)c(-c4cccnc4)c(F)c3F)nc12 [I136] | 282 nM | 89.5% |  | 68.4% |
| Cc1cc(C#N)c2nc(-c3c(F)c(F)c(-c4ccccc4)c(F)c3F)[nH]c2c1 [I109] | 1650 nM | 87% |  | 49% |
| Cc1cc(C(=O)NC(C)C)c2[nH]c(-c3c(F)c(F)c(-c4ccccc4)c(F)c3F)nc2c1 [I162] |  | 71.3% |  | 28.5% |
| O=C(O)c1cc(F)cc2[nH]c(-c3ccc(-c4cccnc4)cc3)nc12 [I58] | 437 nM | 99.7% |  | 69.8% |
| O=C(O)c1cc(Cl)cc2nc(-c3ccc(-c4ccccc4)cc3)[nH]c12 [I35] | 994 nM | 92.9% | 746 nM | 56.4% |
| O=C(O)c1cc(Br)cc2[nH]c(-c3ccc(-c4ccccc4)cc3)nc12 [I6] | 574 nM | 96.7% | 388 nM |  |
| Cc1cc(C(=O)O)c2nc(-c3c(F)c(F)c(-c4ccc(F)cc4)c(F)c3F)[nH]c2c1 [I134] | 118 nM | 88.1% |  | 77.9% |
| Cc1cc(C(=O)NC2CCCC2)c2[nH]c(-c3c(F)c(F)c(-c4ccccc4)c(F)c3F)nc2c1 [I158] |  | 48.5% |  | 6.5% |

| SMILES | IC50 (DHODH) | inhibition at 10 µM (DHODH) | EC50 (Jurkat cells) | inhibition at 1 µM (Jurkat cells) |
| --- | --- | --- | --- | --- |
| Cc1cc(C(=O)O)c2nc(-c3c(F)c(F)c(-c4ccccc4F)c(F)c3F)[nH]c2c1 [I140] | 3.5 nM | 100% | 33 nM | 101% |
| O=C(O)c1cccc2nc(-c3ccc(-c4c(F)cccc4F)cc3)[nH]c12 [I65] | 1840 nM | 82% |  | 43% |
| Cc1cc(C(=O)O)c2nc(-c3ccc(-c4cccc(NC(=O)C5CCCN5)c4)cc3)[nH]c2c1 (centres unmarked) [I150] |  | 30.5% |  | 15.4% |
| Cc1cc(C(=O)O)c2[nH]c(-c3ccc(-c4cccc(OCCC5CCNCC5)c4)cc3)nc2c1 [I153] |  | 53.4% |  | 15.1% |
| Cc1cc(C(=O)O)c2[nH]c(-c3c(F)c(F)c(-c4cccc(O)c4)c(F)c3F)nc2c1 [I104] | 13.5 nM | 104% |  | 110% |
| Cc1ccc(C)n1-c1c(F)c(F)c(-c2nc3cccc(C(=O)O)c3[nH]2)c(F)c1F [I110] | 110 nM | 106% |  | 97% |
| Cc1cc(C(=O)O)c2[nH]c(-c3c(F)c(F)c(-c4ccc(O)cc4)c(F)c3F)nc2c1 [I96] | 16 nM | 98.4% |  | 102% |
| O=C(O)c1cccc2[nH]c(-c3ccc(N4CCCCCC4=O)cc3)nc12 [I81, 2-[4-(2-Oxo-azepan-1-yl)-phenyl]-1H-benzoimidazole-4-carboxylic acid] |  | 17.9% |  | 6.7% |
| Cc1cc(C(=O)O)c2nc(-c3ccc(-c4ccc(C(=O)NC5CCNCC5)cc4)cc3)[nH]c2c1 [I92] | 6640 nM | 59.7% |  | 16.3% |
| Cc1cc(C(=O)O)c2nc(-c3ccc(-c4ccc(Oc5ccc(C=O)cc5)cc4)cc3)[nH]c2c1 [I135] | 1590 nM | 65.1% |  | 21.8% |
| O=C(O)c1cccc2nc(-c3ccc(-c4ccccc4)cc3)oc12 [I19] | 3030 nM | 80.1% |  | 34.3% |
| O=C(O)c1cccc2[nH]c(-c3ccc(-c4cccc(OCc5ccccc5)c4)cc3)nc12 [I118] | 1300 nM | 84% |  | 41.4% |
| Cc1cc(C(=O)O)c2nc(-c3ccc(-c4ccccc4O)cc3)[nH]c2c1 [I167] |  | 82.7% |  | 34.5% |
| O=C(O)c1cccc2[nH]c(-c3c(F)c(F)c(-c4cccc(OC(F)(F)F)c4)c(F)c3F)nc12 [I148] | 218 nM | 103% |  | 88.6% |
| Cc1cc(-c2nnn[nH]2)c2nc(-c3c(F)c(F)c(-c4ccccc4)c(F)c3F)[nH]c2c1 [I103] | 1200 nM | 107% |  | 64.2% |
| Cc1cc(C(=O)O)c2nc(-c3c(F)c(F)c(-n4c(C)ccc4C)c(F)c3F)[nH]c2c1 [I82, 2-[4-(2,5-Dimethyl-pyrrol-1-yl)-2,3,5,6-tetrafluoro-phenyl]-6-methyl-1H-benzoimidazole-4-carboxylic acid] | 5.6 nM | 111% |  | 106% |
